“And” between values parts separate entries of the source, which are not always exact repeats. Equal values may be shown once. Inconclusive results and toxic doses are left out. How the source made its calls: active means survival T/C of 150% or more; inactive means T/C below 125% in these data.
Test system: CD2F1 mice, L1210 leukemia ip, survival T/C
Assay: NCI In Vivo Anticancer Drug Screen. Data for tumor model L1210 Leukemia (intraperitoneal) in CD2F1 (CDF1) mice
Conditions: higher = longer survival
Method in brief: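 Activity against a transplanted murine tumor was judged by comparing the compound group with a vehicle group. The outcome in the treated animals was divided by that in the controls.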

[1] = endpoint: mean survival time, dose: 100.0 mg/kg/injection, schedule: Q04DX003 (ip), vehicle: saline with Tween-80
[2] = endpoint: mean survival time, dose: 200.0 mg/kg/injection, schedule: Q04DX003 (ip), vehicle: saline with Tween-80
[3] = endpoint: mean survival time, dose: 400.0 mg/kg/injection, schedule: Q04DX003 (ip), vehicle: saline with Tween-80
[4] = endpoint: mean survival time, dose: 25.0 mg/kg/injection, schedule: Q01DX009 (ip), vehicle: Klucel (hydroxypropylcellulose) (HPC)
[5] = endpoint: mean survival time, dose: 50.0 mg/kg/injection, schedule: Q01DX009 (ip), vehicle: Klucel (hydroxypropylcellulose) (HPC)
[6] = endpoint: mean survival time, dose: 100.0 mg/kg/injection, schedule: Q01DX009 (ip), vehicle: saline with Tween-80
[7] = endpoint: mean survival time, dose: 200.0 mg/kg/injection, schedule: Q01DX009 (ip), vehicle: saline with Tween-80
[8] = endpoint: mean survival time, dose: 400.0 mg/kg/injection, schedule: Q01DX009 (ip), vehicle: saline with Tween-80

Measured: T/C

COc1cc(C)cc(O)c1C=O
inactive: [1] 100 % of control | [2] 100 % of control | [3] 100 % of control

Nc1ncnc2c1nc(-c1ccccc1)n2C1OC(CO)C(O)C1O (stereo not given)
inactive: endpoint: median survival time, dose: 25.0 mg/kg/injection, schedule: Q01DX005 (ip), vehicle: distilled water + Tween-80 100 % of control | endpoint: median survival time, dose: 50.0 mg/kg/injection, schedule: Q01DX005 (ip), vehicle: distilled water + Tween-80 97 % of control | endpoint: median survival time, dose: 100.0 mg/kg/injection, schedule: Q01DX005 (ip), vehicle: distilled water + Tween-80 100 % of control | endpoint: median survival time, dose: 200.0 mg/kg/injection, schedule: Q01DX005 (ip), vehicle: distilled water + Tween-80 100 % of control

Cc1cc([N+](=O)[O-])c(S(N)(=O)=O)c([N+](=O)[O-])c1
inactive: [4] 98 % of control | [5] 95 % of control

c1ccc2c(c1)Nc1ccncc1S2
inactive: [1] 94 % of control | [2] 96 % of control | [3] 112 % of control

CN(c1ccccc1Cl)S(C)(=O)=O
inactive: [1] 98 % of control | [2] 97 % of control | [3] 90 % of control

CCOC(=O)CC/C=C\Cc1c(OC)c(C)c2c(c1OC(=O)Nc1ccc(C(C)=O)cc1)C(=O)OC2
inactive: endpoint: mean survival time, dose: 100.0 mg/kg/injection, schedule: Q04DX002 (ip), vehicle: saline with Tween-80 121 % of control

C=C(CN(C)C)c1ccccn1
inactive: endpoint: mean survival time, dose: 75.0 mg/kg/injection, schedule: Q01DX001 (ip), vehicle: other 100 % of control

CCCCCCCCC(C)c1cccc(C(C)CCCCCCCC)c1O (stereo not given)
inactive: endpoint: mean survival time, dose: 200.0 mg/kg/injection, schedule: Q01DX001 (ip), vehicle: saline with Tween-80 103 % of control | endpoint: mean survival time, dose: 400.0 mg/kg/injection, schedule: Q01DX001 (ip), vehicle: saline with Tween-80 103 % of control

O=C1c2cccc(Oc3ccccc3)c2C(=O)c2cccc(Oc3ccccc3)c21
inactive: [6] 94 % of control | [1] 96 % of control | [7] 89 % of control | [2] 97 % of control | [8] 98 % of control | [3] 94 % of control

Cc1ccc(C(=O)[O][Hg][CH2]C2COC([CH2][Hg][O]C(=O)c3ccc(C)cc3)CO2)cc1 (stereo not given)
inactive: endpoint: mean survival time, dose: 3.12 mg/kg/injection, schedule: Q01DX009 (ip), vehicle: Klucel (hydroxypropylcellulose) (HPC) 100 % of control and 106 % of control | endpoint: mean survival time, dose: 6.25 mg/kg/injection, schedule: Q01DX009 (ip), vehicle: Klucel (hydroxypropylcellulose) (HPC) 101 % of control and 105 % of control | endpoint: mean survival time, dose: 12.5 mg/kg/injection, schedule: Q01DX009 (ip), vehicle: Klucel (hydroxypropylcellulose) (HPC) 98 % of control and 108 % of control | [4] 98 % of control and 108 % of control | [5] 104 % of control

COc1cccc2c1C(=O)c1c(O)c3c(c(O)c1C2=O)C[C@@](O)(/C(C)=N/NC(=O)c1ccc(Cl)cc1)C[C@@H]3OC1CC(N)C(O)C(C)O1 (stereo not given in full)
inactive: endpoint: mean survival time, dose: 0.5 mg/kg/injection, schedule: Q01DX009 (ip), vehicle: saline 96 % of control | endpoint: mean survival time, dose: 0.5 mg/kg/injection, schedule: Q01DX009 (ip), vehicle: suspension in saline 110 % of control | endpoint: mean survival time, dose: 1.0 mg/kg/injection, schedule: Q01DX009 (ip), vehicle: suspension in saline 115 % of control | endpoint: mean survival time, dose: 2.0 mg/kg/injection, schedule: Q01DX009 (ip), vehicle: saline 122 % of control | endpoint: mean survival time, dose: 2.0 mg/kg/injection, schedule: Q01DX009 (ip), vehicle: suspension in saline 118 % of control | endpoint: mean survival time, dose: 16.0 mg/kg/injection, schedule: Q01DX009 (ip), vehicle: saline 108 % of control

O=C1NC(=O)C(Br)C(=O)N1
inactive: endpoint: mean survival time, dose: 75.0 mg/kg/injection, schedule: Q01DX001 (ip), vehicle: saline 102 % of control | endpoint: mean survival time, dose: 150.0 mg/kg/injection, schedule: Q01DX001 (ip), vehicle: saline 100 % of control

CCCc1cc(C(C)=O)c[n+](C2OC(COC(C)=O)C(OC(C)=O)C(OC(C)=O)C2OC(C)=O)c1 (stereo not given)
inactive: endpoint: mean survival time, dose: 3.13 mg/kg/injection, schedule: Q01DX005 (ip), vehicle: water 107 % of control | endpoint: mean survival time, dose: 6.25 mg/kg/injection, schedule: Q01DX005 (ip), vehicle: water 100 % of control | endpoint: mean survival time, dose: 12.5 mg/kg/injection, schedule: Q01DX005 (ip), vehicle: water 104 % of control | endpoint: mean survival time, dose: 25.0 mg/kg/injection, schedule: Q01DX005 (ip), vehicle: water 109 % of control | endpoint: mean survival time, dose: 50.0 mg/kg/injection, schedule: Q01DX005 (ip), vehicle: water 95 % of control

NC1CCCCC1.[O]=[Cr](=[O])([OH])[OH]
inactive: endpoint: mean survival time, dose: 6.25 mg/kg/injection, schedule: Q04DX003 (ip), vehicle: saline 103 % of control | endpoint: mean survival time, dose: 12.5 mg/kg/injection, schedule: Q04DX003 (ip), vehicle: saline 98 % of control | endpoint: mean survival time, dose: 25.0 mg/kg/injection, schedule: Q04DX003 (ip), vehicle: saline 110 % of control

COC(=O)Nc1cccc(OC(=O)NC(C)(C)CC(C)(C)C)c1
inactive: endpoint: mean survival time, dose: 25.0 mg/kg/injection, schedule: Q01DX009 (ip), vehicle: saline with Tween-80 101 % of control | endpoint: mean survival time, dose: 50.0 mg/kg/injection, schedule: Q01DX009 (ip), vehicle: saline with Tween-80 101 % of control | [6] 97 % of control

O=S(=O)(O)SCCN1CCOCC1
inactive: endpoint: mean survival time, dose: 100.0 mg/kg/injection, schedule: Q01DX009 (ip), vehicle: saline 103 % of control | [1] 101 % of control | endpoint: mean survival time, dose: 200.0 mg/kg/injection, schedule: Q01DX009 (ip), vehicle: saline 106 % of control | [2] 101 % of control | endpoint: mean survival time, dose: 400.0 mg/kg/injection, schedule: Q01DX009 (ip), vehicle: saline 104 % of control | [3] 100 % of control

CSc1ncc(Br)c(C(=O)O)n1
inactive: [1] 96 % of control | [2] 96 % of control | [3] 93 % of control

CC(=O)CC(=O)C(F)(F)F.CC(=O)CC(=O)C(F)(F)F.[O]=[V]
inactive: endpoint: mean survival time, dose: 3.8 mg/kg/injection, schedule: Q01DX009 (ip), vehicle: saline with Tween-80 95 % of control | endpoint: mean survival time, dose: 7.5 mg/kg/injection, schedule: Q01DX009 (ip), vehicle: saline with Tween-80 93 % of control | endpoint: mean survival time, dose: 15.0 mg/kg/injection, schedule: Q01DX009 (ip), vehicle: saline with Tween-80 92 % of control

CN(C)CC1CCC/C(=C\C=C\c2ccccc2)C1=O (stereo not given)
inactive: endpoint: mean survival time, dose: 12.5 mg/kg/injection, schedule: Q04DX003 (ip), vehicle: Klucel (hydroxypropylcellulose) (HPC) 100 % of control | endpoint: mean survival time, dose: 25.0 mg/kg/injection, schedule: Q04DX003 (ip), vehicle: Klucel (hydroxypropylcellulose) (HPC) 103 % of control | endpoint: mean survival time, dose: 50.0 mg/kg/injection, schedule: Q04DX003 (ip), vehicle: Klucel (hydroxypropylcellulose) (HPC) 94 % of control

CCCCN(CCCC)CCC(=O)OCC
inactive: [6] 101 % of control | [7] 95 % of control | [8] 112 % of control

NCS(=O)(=O)O
inactive: endpoint: mean survival time, dose: 100.0 mg/kg/injection, schedule: Q01DX001 (ip), vehicle: saline with Tween-80 98 % of control

c1ccc2c(c1)-c1ccccc1C1NC21 (stereo not given)
inactive: endpoint: median survival time, dose: 6.25 mg/kg/injection, schedule: Q01DX009 (ip), vehicle: saline with Tween-80 112 % of control | endpoint: median survival time, dose: 12.5 mg/kg/injection, schedule: Q01DX009 (ip), vehicle: saline with Tween-80 108 % of control | endpoint: median survival time, dose: 25.0 mg/kg/injection, schedule: Q01DX009 (ip), vehicle: saline with Tween-80 120 % of control

CCC12CN3CCc4c([nH]c5ccccc45)C(C(=O)OC)(c4cc5c(cc4OC)N(C)C4C(O)(C(=O)OC)C(OC(C)=O)C6(CC)C=CCN7CCC54C76)CC(C3)C1O2.CI.CO.[I][Hg][I] (stereo not given)
inactive: endpoint: mean survival time, dose: 100.0 mg/kg/injection, schedule: Q01DX001 (ip), vehicle: saline 100 % of control

N=c1ccn2c(n1)OC1C(OC(=O)C34CC5CC(CC(C5)C3)C4)C(COC(=O)C34CC5CC(CC(C5)C3)C4)OC12 (stereo not given)
inactive: endpoint: mean survival time, dose: 12.5 mg/kg/injection, schedule: Q01DX005 (ip), vehicle: distilled water + Tween-80 104 % of control | endpoint: mean survival time, dose: 25.0 mg/kg/injection, schedule: Q01DX005 (ip), vehicle: distilled water + Tween-80 107 % of control | endpoint: mean survival time, dose: 50.0 mg/kg/injection, schedule: Q01DX005 (ip), vehicle: distilled water + Tween-80 121 % of control

From PubChem BioAssay AID256 (DTP/NCI, 2004)
